Reference: patent publication EP0494819B1, “Phenylimidazolidines, their process for fabrication, their application as medicaments and the pharmaceutical compositions containing them” (ROUSSEL UCLAF, priority 1991, dated 1992)

Columns and labels:
[1] = biological target: T1, récepteur androgène (Rattus norvegicus, UniProt P15207); assay: Affinity for the androgen receptor: relative binding affinity (ARL), displacement of tritiated testosterone in prostate cytosol of castrated rats; set-up: species or system rats mâles Sprague Dawley EOPS; conditions: testosterone = 100, ARL=100 (CH)/(CX); for ARL (affinité relative de liaison), Incubation : 30 minutes: incubation 30 minutes at 0°C; for ARL (affinité relative de liaison), Incubation : 24 heures: incubation 24 hours at 0°C
T1 construct: Des aliquotes du surnageant obtenu (=cytosol), sont incubées 30 minutes et 24 heures à 0°C; from tissue; host or cells: prostate cytosol (105 000 g supernatant) of castrated male Sprague Dawley rats
T1 sequence (P15207 1-902): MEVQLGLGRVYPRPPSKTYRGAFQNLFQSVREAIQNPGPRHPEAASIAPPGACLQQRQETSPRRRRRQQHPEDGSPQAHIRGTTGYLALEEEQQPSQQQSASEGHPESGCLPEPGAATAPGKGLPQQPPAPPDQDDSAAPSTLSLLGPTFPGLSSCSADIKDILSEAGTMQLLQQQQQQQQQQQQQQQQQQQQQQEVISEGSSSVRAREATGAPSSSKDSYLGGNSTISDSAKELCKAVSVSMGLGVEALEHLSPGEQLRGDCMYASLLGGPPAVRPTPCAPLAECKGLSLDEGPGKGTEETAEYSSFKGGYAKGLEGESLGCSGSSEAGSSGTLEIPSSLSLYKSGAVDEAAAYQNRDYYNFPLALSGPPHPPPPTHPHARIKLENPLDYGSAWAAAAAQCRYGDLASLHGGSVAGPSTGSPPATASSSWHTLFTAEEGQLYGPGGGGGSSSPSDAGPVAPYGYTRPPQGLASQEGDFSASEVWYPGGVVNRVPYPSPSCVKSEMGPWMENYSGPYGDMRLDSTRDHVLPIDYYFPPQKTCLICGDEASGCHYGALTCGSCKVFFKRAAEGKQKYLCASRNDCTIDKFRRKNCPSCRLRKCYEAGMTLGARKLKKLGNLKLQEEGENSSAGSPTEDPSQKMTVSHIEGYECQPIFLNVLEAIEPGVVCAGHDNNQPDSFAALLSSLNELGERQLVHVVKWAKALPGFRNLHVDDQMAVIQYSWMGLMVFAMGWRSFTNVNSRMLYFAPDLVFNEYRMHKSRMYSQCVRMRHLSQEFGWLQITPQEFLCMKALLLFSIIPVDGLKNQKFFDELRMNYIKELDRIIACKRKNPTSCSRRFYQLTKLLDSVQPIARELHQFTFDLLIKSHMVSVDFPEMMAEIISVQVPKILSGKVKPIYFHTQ
Description: 1) Etude de l'affinité des produits de l'invention pour le récepteur androgène
Des rats mâles Sprague Dawley EOPS de 180-200 g, castrés de 24 heures, sont sacrifiés, les prostates prélevées, pesées et homogénéisées à 0°C à l'aide d'un potter verre-verre, dans une solution tamponnée (Tris 10mM, saccharose 0,25M, PMSF (phénylméthanesulfonylfluoride) 0,1mM, Molybdate de sodium 20mM, HCl pH 7,4; auxquels on ajoute extemporanément 2mM de DTT (DL dithiothreitol), à raison de 1 g de tissu pour 8 ml de tampon.
L'homogénat est ensuite ultracentrifugé à 0°C, 45 minutes à 105 000 g.
Calcul de l'affinité relative de liaison (ARL).
On trace les 2 courbes suivantes : le pourcentage de l'hormone tritiée liée B/T en fonction du logarithme de la concentration de l'hormone de référence froide et B/T en fonction du logarithme de la concentration du produit froid testé. On détermine la droite d'équation I50=(B/Tmax + B/Tmin)/2. B/T max= % de l'hormone tritiée liée pour une incubation de cette hormone tritiée à la concentration (T). B/T min= % de l'hormone tritiée liée pour une incubation de cette hormone tritiée à la concentration (T) en présence d'un grand excès d'hormone froide (2500.10^-9M).
Les intersections de la droite I50 et des courbes, permettent d'évaluer les concentrations de l'hormone de référence froide (CH) et du produit froid testé (CX) qui inhibent de 50 % la liaison de l'hormone tritiée sur le récepteur.

[2] = tested on: ornithine décarboxylase rénale; assay: Androgen or anti-androgen activity by assay of renal ornithine decarboxylase in castrated mice, oral treatment; format: in vivo, souris mâles SWISS; conditions: kidneys taken 16 h after treatment; for Antagonisme (PO): with testosterone propionate 3 mg/kg s.c.
Description: 2) Détermination de l'activité androgène ou anti-androgène des produits de l'invention à l'aide du dosage de l'ornithine de carboxylase.
16 heures après les traitements, les animaux sont sacrifiés, les reins prélevés, puis homogénéisés à 0°C , à l'aide d'un broyeur téflon-verre dans 10 volumes de tampon Tris-HCl 50 mM (pH 7,4) contenant 250 uM de phosphate de pyridoxal, 0,1 mM EDTA, et 5 mM de dithiothreitol. L'homogenat est ensuite centrifugé à 105000 g pendant 45 mn.
A 37°C, l'ornithine décarboxylase rénale transforme un mélange isotopique d'ornithine froide et d'ornithine tritiée en putrescine froide et putrescine tritiée.
La putrescine est ensuite recueillie sur des papiers sélectifs, échangeurs d'ions. Après séchage, l'excès d'ornithine tritiée et froide non transformée est éliminé, par 3 lavages d'ammoniaque 0,1 M. Les papiers sont séchés, puis la radioactivité est comptée après addition de scintillant Aqualite.
Les résultats sont exprimés en fmoles ([…]) de putrescine tritiée formée/heure/mg de protéines.

SMILES	ARL (affinité relative de liaison), Incubation : 30 minutes [1]	ARL (affinité relative de liaison), Incubation : 24 heures [1]	Antagonisme (PO) ([2]; 3 mg/kg PO)	Antagonisme (PO) ([2]; 0,3 mg/kg PO)	Antagonisme (PO) ([2]; 1 mg/kg PO)	Antagonisme (PO) ([2]; 0,1 mg/kg PO)	Antagonisme (PO) ([2]; 10 mg/kg PO)	Angonisme (PO) ([2]; 10 mg/kg PO, without testosterone propionate)
CC1(C)NC(=S)N(c2ccc(C#N)c(C(F)(F)F)c2)C1=N [Produit de l'exemple 14, 4-(4,4-diméthyl-5-imino-2-thioxo-1-imidazolidinyl)-2-(trifluorométhyl)-benzonitrile]	27	7	3 mg/kg : 87%					
CC(C)N1C(=O)N(c2ccc([N+](=O)[O-])c(C(F)(F)F)c2)C(=O)C1(C)C [Produit de l'exemple 4, 5,5-diméthyl-1-(1-méthyl éthyl)-3-(4-nitro-3-(trifluorométhyl)phényl)-2,4-imidazolidinedione]	21	5						
CC1(C)NC(=S)N(c2ccc(C#N)c(C(F)(F)F)c2)C1=O [Produit de l'exemple 15, 4-(4,4-diméthyl-5-oxo-2-thioxo-1-imidazolidinyl)-2-(trifluorométhyl)-benzonitrile]	69	24		0,3 mg/kg : 4%	1 mg/kg : 82%			
CCN1C(=O)N(c2ccc([N+](=O)[O-])c(C(F)(F)F)c2)C(=O)C1(C)C [Produit de l'exemple 2, 5,5-diméthyl-1-éthyl-3-(4-nitro-3-(trifluorométhyl)phényl)-2,4-imidazolidinedione]	22	6						
CN1C(=S)N(c2ccc(C#N)c(C(F)(F)F)c2)C(=N)C1(C)C [Produit de l'exemple 11, 4-(5-imino-2-thioxo-3,4,4-triméthyl-1-imidazolidinyl)-2-(trifluorométhyl)-benzonitrile]	28	8	3 mg/kg : 83%					
CN1C(=S)N(c2ccc(C#N)c(C(F)(F)F)c2)C(=S)C1(C)C [Produit de l'exemple 13, 4-(2,5-dithioxo-3,4,4-triméthyl-1-imidazolidinyl)-2-(trifluorométhyl)-benzonitrile]	31	39						
CN1C(=O)N(c2ccc([N+](=O)[O-])c(C(F)(F)F)c2)C(=O)C1(C)C [Produit de l'exemple 1, 1-(4-nitro-3-(trifluorométhyl)phényl)-3,4,4-triméthyl-2,5-imidazolidinedione]	27,5	3						
CN1C(=S)N(c2ccc(C#N)c(C(F)(F)F)c2)C(=O)C1(C)C [Produit de l'exemple 12, 4-(5-oxo-2-thioxo-3,4,4-triméthyl-1-imidazolidinyl)-2-(trifluorométhyl)-benzonitrile]	128	92	3 mg/kg : 94%	0,3 mg/kg : 36%	1 mg/kg : 68%	0,1 mg/kg : 12%	10 mg/kg : 99%	10 mg/kg : 0%
